Values quoted from earlier work as cited in PMC12650809, “Evolving Therapeutic Landscape of ROS1-Positive Non-Small Cell Lung Cancer: An Updated Review” (Current Oncology, 2025).
Read-outs that look alike come from different tables or passages of the source. Marks after values point to notes of the source that are not given here. Values belong to the compound of their own block, whether it stands above or below them.

Tests used:
[1] = system: advanced ROS1-rearranged NSCLC; parameters: method as in PMID 38197815
ROS1-positive NSCLC [2] = system: ROS1-positive NSCLC
ROS1-positive NSCLC [3] = system: ROS1-positive NSCLC; parameters: method as in earlier work; details: WCLC 2025 Abstract 4540; for ORR if G2032R Mutation (%): TKI-pretreated patients with G2032R; for IC-ORR (%) / TKI-Pretreated ORR (%) / mPFS (Months): TKI-pretreated patients
ROS1^L2086F = system: ROS1^L2086F; parameters: method as in PMID 38070596; details: for resistance or activity with L2086F: ATP-binding pocket; for resistance or sensitivity conferred by ROS1^L2086F: L2086F alone or in combination with G2032R or S1986F, preclinical models
ROS1^G2032R = system: ROS1^G2032R; parameters: method as in PMID 38070596; details: solvent-front substitution
[4] = system: ROS1^G2032R and D2033N mutations; details: preclinical, in vitro
ROS1-positive NSCLC [5] = system: ROS1-positive NSCLC; remark: listed apart in the source
[6] = system: advanced ROS1-positive NSCLC; parameters: method as in PMID 31669155
ROS1-positive NSCLC [7] = system: ROS1-positive NSCLC; parameters: method as in doi:10.1200/JCO.2024.42.16_suppl.8519; details: 32 TKI-naïve patients
ROS1-positive NSCLC [8] = system: ROS1-positive NSCLC; parameters: method as in PMID 35227966
ROS1^G2032R mutation = system: ROS1^G2032R mutation; parameters: method as in PMID 36511802; details: preclinical studies
wild-type ROS1 = system: wild-type ROS1; parameters: method as in PMID 36511802; details: preclinical studies
ROS1-positive NSCLC [9] = system: ROS1-positive NSCLC; remark: listed apart in the source
[10] = system: advanced ROS1-positive NSCLC
ROS1-positive NSCLC [11] = system: ROS1-positive NSCLC; parameters: method as in PMID 29596029; details: 127 patients
ROS1-positive NSCLC [12] = system: ROS1-positive NSCLC; parameters: method as in PMID 31584608
ROS1-positive NSCLC [13] = system: ROS1-positive NSCLC; parameters: method as in PMID 30978502; details: 34 patients
[14] = ROS1 TKI-naïve patients, n = 71
[15] = previously treated with a ROS1-targeted TKI, n = 56
[16] = previously treated with crizotinib
[17] = after at least one prior ROS1-targeted TKI
[18] = 117 TKI-pretreated patients, WCLC 2025 Abstract 4540
[19] = TKI-naïve patients, n = 35, preliminary, WCLC 2025 Abstract 4540
[20] = TKI-naïve patients, preliminary, WCLC 2025 Abstract 4540
[21] = most common AEs, ref WCLC 2025 Abstract 4540
[22] = grade ≥ 3, ref WCLC 2025 Abstract 4540

Structure (SMILES): C[C@H]1CNC(=O)c2cnn3ccc(nc23)N[C@H](C)c2cc(F)ccc2O1 [Repotrectinib, repotrectinib]
- treatment discontinuation due to AEs [1]: 7%
- response rate ([1]; 17 patients harboring ROS1^G2032R): 59%
- dizziness ([1]; AEs, mostly grade 1–2): 58%
- dysgeusia ([1]; AEs, mostly grade 1–2): 50%
- paresthesia ([1]; AEs, mostly grade 1–2): 30%
- ORR [1, 14]: 79%
- median DOR [1, 14]: 34.1 months
- median PFS [1, 14]: 35.7 months
- intracranial response rate ([1]; TKI-naïve, measurable BMs at baseline): 89%
- ORR [1, 15]: 38%
- median PFS [1, 15]: 9 months
- TKI-Naive ORR (%) (ROS1-positive NSCLC [2]; TKI-naïve patients): 79%
- mPFS (Months) (ROS1-positive NSCLC [2]; TKI-naïve patients): 35.7 Months
- IC-ORR (%) (ROS1-positive NSCLC [2]; TKI-naïve patients evaluable for intracranial ORR): 89 ^d %
- ORR if G2032R Mutation (%) (ROS1-positive NSCLC [3]): 59%
- IC-ORR (%) (ROS1-positive NSCLC [3]): 38%
- TKI-Pretreated ORR (%) (ROS1-positive NSCLC [3]): 38%
- mPFS (Months) (ROS1-positive NSCLC [3]): 9.0 Months
- resistance or activity with L2086F (ROS1^L2086F): cross-resistance
- resistance or sensitivity with ROS1^G2032R (ROS1^G2032R): some sensitivity
- inhibitory activity against ROS1^G2032R and D2033N mutations [4]: potent inhibitory activity
- Notable AEs: dizziness (ROS1-positive NSCLC [5]): 58%
- Notable AEs: dysgeusia (ROS1-positive NSCLC [5]): 50%
- Notable AEs: paresthesia (ROS1-positive NSCLC [5]): 30%
- Discontinuation for AEs (%) (ROS1-positive NSCLC [5]; WCLC 2025 Abstract 4540): 7%
- Main Grade ≥ 3 AEs: anemia (ROS1-positive NSCLC [5]; grade ≥ 3): 4%
- Main Grade ≥ 3 AEs: dizziness (ROS1-positive NSCLC [5]; grade ≥ 3): 3%

Structure (SMILES): C[C@H]1Oc2cc(cnc2N)-c2c(nn(C)c2C#N)CN(C)C(=O)c2ccc(F)cc21 [Lorlatinib, lorlatinib]
- ORR ([6]; 21 TKI-naïve patients): 62%
- median DOR ([6]; TKI-naïve patients): 25.3 months
- median PFS ([6]; TKI-naïve patients): 21.0 months
- intracranial ORR ([6]; TKI-naïve, BMs at baseline): 64%
- efficacy against ROS1^G2032R mutation ([6]; patients with secondary resistance mutations to crizotinib): limited efficacy
- treatment discontinuation due to AEs ([6]; pivotal trial): 1%
- ORR [6, 16]: 35%
- intracranial ORR [6, 16]: 50%
- median DOR [6, 16]: 13.8 months
- activity in patients harboring ROS1^K1991E and ROS1^S1986F mutations ([6]; secondary resistance mutations to crizotinib): showed activity in some patients
- ORR (ROS1-positive NSCLC [7]): 69%
- median PFS (ROS1-positive NSCLC [7]): 35.8 months
- ORR (ROS1-positive NSCLC [8]; 80 patients after at least one prior ROS1-targeted TKI): 45%
- intracranial ORR (ROS1-positive NSCLC [8]; [17]): 72%
- median OS (ROS1-positive NSCLC [8]; [17]): 19.6 months
- median PFS (ROS1-positive NSCLC [8]; [17]): 7.1 months
- median intracranial DOR (ROS1-positive NSCLC [8]; non-irradiated brain metastases): 20.6 months
- treatment discontinuation due to AEs (ROS1-positive NSCLC [8]; real-world cohort): 13%
- ORR if G2032R Mutation (%) (ROS1-positive NSCLC [3]): 0%
- IC-ORR (%) (ROS1-positive NSCLC [3]): 50%
- mPFS (Months) (ROS1-positive NSCLC [3]): 8.5 Months
- resistance or sensitivity conferred by ROS1^L2086F (ROS1^L2086F): cross-resistance
- resistance or sensitivity with ROS1^G2032R (ROS1^G2032R): high-level resistance
- Notable AEs: cognitive effects (ROS1-positive NSCLC [5]): 27%
- Notable AEs: dizziness (ROS1-positive NSCLC [5]): 12%
- Notable AEs: hypercholesterolemia (ROS1-positive NSCLC [5]): 80%
- Notable AEs: mood disorders (ROS1-positive NSCLC [5]): 16%
- Notable AEs: weight gain (ROS1-positive NSCLC [5]): 23%
- Discontinuation for AEs (%) (ROS1-positive NSCLC [5]; WCLC 2025 Abstract 4540): 1%
- Main Grade ≥ 3 AEs: hypercholesterolemia (ROS1-positive NSCLC [5]; grade ≥ 3): 15%
- Main Grade ≥ 3 AEs: hypertriglyceridemia (ROS1-positive NSCLC [5]; grade ≥ 3): 19%
- Main Grade ≥ 3 AEs: weight gain (ROS1-positive NSCLC [5]; grade ≥ 3): 7%

- IC50 (ROS1^G2032R mutation): 7.9 nM
- treatment discontinuations (ROS1-positive NSCLC [9]; most common reason: pneumonia, ref WCLC 2025 Abstract 4540): 2%
- dose reductions (ROS1-positive NSCLC [9]; ref WCLC 2025 Abstract 4540): 10%
Structure (SMILES): CCn1ncc2c1-c1cnc(N)c(c1)O[C@H](C)c1cc(F)ccc1-c1nn(C)nc1C2 [Zidesamtinib, zidesamtinib]
- inhibitory activity (wild-type ROS1): subnanomolar
- ORR if G2032R Mutation (%) (ROS1-positive NSCLC [3]): 83%
- IC-ORR (%) (ROS1-positive NSCLC [3]): 48%
- TKI-Pretreated ORR (%) (ROS1-positive NSCLC [3]): 44%
- mPFS (Months) (ROS1-positive NSCLC [3]): 9.7 Months
- resistance or activity with L2086F (ROS1^L2086F): cross-resistance
- resistance or sensitivity with ROS1^G2032R (ROS1^G2032R): some sensitivity
- 12-month DOR rate (ROS1-positive NSCLC [9]; [18]): 78%
- ORR (ROS1-positive NSCLC [9]; [18]): 44%
- 12-month DOR rate (ROS1-positive NSCLC [9]; [19]): 96%
- ORR (ROS1-positive NSCLC [9]; [19]): 89%
- CNS progression events at data cutoff (ROS1-positive NSCLC [9]; [20]): no CNS progression events
- IC-ORR (ROS1-positive NSCLC [9]; [20]): 83%
- intracranial complete responses (number) (ROS1-positive NSCLC [9]; [20]): four
- constipation (ROS1-positive NSCLC [9]; [21]): 17%
- creatine phosphokinase elevation (ROS1-positive NSCLC [9]; [21]): 16%
- dyspnea (ROS1-positive NSCLC [9]; [21]): 15%
- fatigue (ROS1-positive NSCLC [9]; [21]): 16%
- peripheral edema (ROS1-positive NSCLC [9]; [21]): 36%
- Discontinuation for AEs (%) (ROS1-positive NSCLC [5]; WCLC 2025 Abstract 4540): 2%
- Notable AEs: constipation (ROS1-positive NSCLC [5]; WCLC 2025 Abstract 4540): 17%
- Notable AEs: peripheral edema (ROS1-positive NSCLC [5]; WCLC 2025 Abstract 4540): 36%
- Main Grade ≥ 3 AEs: CPK elevation (ROS1-positive NSCLC [5]; [22]): CPK elevation (3%), dyspnea (3%)
- Main Grade ≥ 3 AEs: dyspnea (ROS1-positive NSCLC [5]; [22]): CPK elevation (3%), dyspnea (3%)
- Notable AEs: CPK elevation (ROS1-positive NSCLC [5]; ref WCLC 2025 Abstract 4540): 16%
- Notable AEs: dyspnea (ROS1-positive NSCLC [5]; ref WCLC 2025 Abstract 4540): 15%
- Notable AEs: fatigue (ROS1-positive NSCLC [5]; ref WCLC 2025 Abstract 4540): 16%

- grade 4 or 5 events [10]: no grade 4 or 5 events
Structure (SMILES): C[C@@H](Oc1cc(-c2cnn(C3CCNCC3)c2)cnc1N)c1c(Cl)ccc(F)c1Cl [Crizotinib, crizotinib]
- 4-year survival probability [10]: 51%
- AEs leading to permanent treatment discontinuation [10]: No AEs led to permanent treatment discontinuation
- median PFS [10]: 19.3 months
- median duration of response (DOR) [10]: 24.7 months
- median overall survival (OS) [10]: 51.4 months
- median time to response [10]: 7.9 weeks
- ORR ([10]; 53 patients): 72%
- complete responses (number) ([10]; 53 patients): 6
- partial responses (number) ([10]; 53 patients): 32
- diarrhea ([10]; treatment-related AEs): 44%
- nausea ([10]; treatment-related AEs): 40%
- peripheral edema ([10]; treatment-related AEs): 40%
- visual disturbances ([10]; treatment-related AEs): 82%
- ORR (ROS1-positive NSCLC [11]): 72%
- median PFS (ROS1-positive NSCLC [11]): 15.9 months
- ORR (ROS1-positive NSCLC [12]): 69.4%
- median PFS (ROS1-positive NSCLC [12]): 5.5 months
- ORR (ROS1-positive NSCLC [13]): 70%
- median PFS (ROS1-positive NSCLC [13]): 20 months
- TKI-Naive ORR (%) (ROS1-positive NSCLC [2]; TKI-naïve patients): 72%
- resistance or sensitivity conferred by ROS1^L2086F (ROS1^L2086F): cross-resistance
- resistance or sensitivity with ROS1^G2032R (ROS1^G2032R): high-level resistance
- Notable AEs: diarrhea (ROS1-positive NSCLC [5]): 44%
- Notable AEs: nausea (ROS1-positive NSCLC [5]): 40%
- Notable AEs: visual disturbances (ROS1-positive NSCLC [5]): 82%
- Discontinuation for AEs (%) (ROS1-positive NSCLC [5]; WCLC 2025 Abstract 4540): <1%
- Notable AEs: peripheral edema (ROS1-positive NSCLC [5]; WCLC 2025 Abstract 4540): 40%
- Main Grade ≥ 3 AEs: hypophosphatemia (ROS1-positive NSCLC [5]; grade ≥ 3): Hypophosphatemia (10%), neutropenia (10%)
- Main Grade ≥ 3 AEs: neutropenia (ROS1-positive NSCLC [5]; grade ≥ 3): Hypophosphatemia (10%), neutropenia (10%)
